Laboratory results as given in patent US8415469B2, “Compounds and methods for kinase modulation, and indications therefor” (Plexxikon Inc., priority 2005, dated 2013).

Experiments:
Format in all cases: biochemical
[1] = target: T1, FGFR1 (Homo sapiens, UniProt P11362, C488A/C584S); test: AlphaScreen kinase assay, FGFR1; conditions: read-out: IC50, activity toward kinase FGFR
T1 construct: P1351.pET N6 BI-PTP FGFR A458-E765-X C488A, C584S; made in house; host or cells: E. coli (PTP1B co-expressed)
T1 sequence (P11362 458-765 C488A/C584S): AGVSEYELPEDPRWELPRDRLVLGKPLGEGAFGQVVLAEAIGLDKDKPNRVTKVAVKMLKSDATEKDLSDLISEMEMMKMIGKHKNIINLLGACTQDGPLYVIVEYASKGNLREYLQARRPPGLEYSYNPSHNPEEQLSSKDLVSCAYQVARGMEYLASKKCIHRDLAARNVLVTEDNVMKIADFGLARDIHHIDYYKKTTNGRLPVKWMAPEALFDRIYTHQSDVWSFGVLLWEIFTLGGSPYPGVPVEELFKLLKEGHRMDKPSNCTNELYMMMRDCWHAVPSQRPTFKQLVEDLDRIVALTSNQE

[2] = target: T2, B-Raf V600E (Homo sapiens, UniProt P15056, V600E); test: AlphaScreen kinase assay, B-Raf V600E; conditions: read-out: IC50, activity toward kinase B-Raf V600E
T2 construct: P4254. pFastBacBD-CDC37 BRAF D437-K722-X, V600E; His6 with pFastBac HT leader (TEV site) (N); made in house; host or cells: Sf9 (baculovirus; chaperone CDC37 co-expressed)
T2 sequence (P15056 with tags, fused parts or gaps V600E): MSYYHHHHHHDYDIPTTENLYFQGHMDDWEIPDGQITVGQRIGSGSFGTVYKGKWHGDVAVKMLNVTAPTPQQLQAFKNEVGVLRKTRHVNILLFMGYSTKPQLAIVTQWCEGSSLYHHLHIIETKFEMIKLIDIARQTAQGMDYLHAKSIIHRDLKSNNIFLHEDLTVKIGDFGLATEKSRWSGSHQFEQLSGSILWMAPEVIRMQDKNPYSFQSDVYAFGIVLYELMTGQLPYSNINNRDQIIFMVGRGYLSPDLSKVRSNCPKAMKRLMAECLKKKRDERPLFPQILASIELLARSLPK

[3] = target: T3, Flt1 (Homo sapiens, UniProt P17948); test: AlphaScreen kinase assay, Flt1; conditions: read-out: IC50, activity toward kinase Flt1
T3 construct: P1826.pETN6 BI-PTP FLT1 M799-D1165-X WT; His6 (N); made in house; host or cells: E. coli (PTP1B co-expressed)
T3 sequence (P17948 with tags, fused parts or gaps): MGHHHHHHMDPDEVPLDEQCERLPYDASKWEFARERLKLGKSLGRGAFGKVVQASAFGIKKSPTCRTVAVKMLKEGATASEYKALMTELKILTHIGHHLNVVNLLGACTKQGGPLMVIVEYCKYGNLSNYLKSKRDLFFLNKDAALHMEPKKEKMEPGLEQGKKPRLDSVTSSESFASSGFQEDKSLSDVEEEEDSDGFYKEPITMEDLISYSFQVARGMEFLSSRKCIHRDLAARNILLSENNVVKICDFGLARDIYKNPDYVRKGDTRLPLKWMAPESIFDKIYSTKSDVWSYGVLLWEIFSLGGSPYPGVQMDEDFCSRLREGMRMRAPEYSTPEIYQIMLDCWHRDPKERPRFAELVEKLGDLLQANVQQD

[4] = target: T4, Kit (Homo sapiens, UniProt P10721); test: AlphaScreen kinase assay, Kit; conditions: read-out: IC50, activity toward kinase Kit
T4 construct: P1332.N6 BI PTP KIT M552-K948-X COD; His6 (N); made in house; host or cells: E. coli (PTP1B co-expressed)
T4 sequence (P10721 with tags, fused parts or gaps): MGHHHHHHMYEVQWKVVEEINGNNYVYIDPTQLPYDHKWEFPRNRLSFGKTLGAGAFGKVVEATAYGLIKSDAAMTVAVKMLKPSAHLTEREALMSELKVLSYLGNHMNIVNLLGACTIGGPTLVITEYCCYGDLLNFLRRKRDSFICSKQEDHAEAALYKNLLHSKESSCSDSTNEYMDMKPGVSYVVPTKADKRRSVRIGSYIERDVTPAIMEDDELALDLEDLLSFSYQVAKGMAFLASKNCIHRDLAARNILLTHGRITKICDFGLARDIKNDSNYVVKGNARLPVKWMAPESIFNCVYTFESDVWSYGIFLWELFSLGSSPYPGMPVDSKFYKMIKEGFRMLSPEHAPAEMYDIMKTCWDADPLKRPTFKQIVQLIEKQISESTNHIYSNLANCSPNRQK

[5] = target: T5, Ret (Homo sapiens, UniProt P07949); test: AlphaScreen kinase assay, Ret; conditions: read-out: IC50, activity toward kinase Ret
T5 construct: P1378.pET-SF BI-PTP RET H661-R1012 HIS; made in house
T5 sequence (P07949 with tags, fused parts or gaps): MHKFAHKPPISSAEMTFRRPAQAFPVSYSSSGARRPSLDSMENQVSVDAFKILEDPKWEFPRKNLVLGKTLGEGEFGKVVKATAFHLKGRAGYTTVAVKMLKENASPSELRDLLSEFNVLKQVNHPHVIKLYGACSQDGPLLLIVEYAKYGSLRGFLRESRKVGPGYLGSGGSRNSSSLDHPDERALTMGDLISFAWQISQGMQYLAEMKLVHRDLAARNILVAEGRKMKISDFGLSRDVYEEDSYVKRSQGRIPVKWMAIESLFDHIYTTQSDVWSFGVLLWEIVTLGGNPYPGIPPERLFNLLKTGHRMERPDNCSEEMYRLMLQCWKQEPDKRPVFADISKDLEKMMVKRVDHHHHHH

[6] = target: T6, Fms (Homo sapiens, UniProt P07333); test: AlphaScreen kinase assay, Fms; conditions: read-out: IC50, activity toward kinase Fms
T6 construct: purchased Upstate Biotechnology
T6 sequence (P07333 20-972): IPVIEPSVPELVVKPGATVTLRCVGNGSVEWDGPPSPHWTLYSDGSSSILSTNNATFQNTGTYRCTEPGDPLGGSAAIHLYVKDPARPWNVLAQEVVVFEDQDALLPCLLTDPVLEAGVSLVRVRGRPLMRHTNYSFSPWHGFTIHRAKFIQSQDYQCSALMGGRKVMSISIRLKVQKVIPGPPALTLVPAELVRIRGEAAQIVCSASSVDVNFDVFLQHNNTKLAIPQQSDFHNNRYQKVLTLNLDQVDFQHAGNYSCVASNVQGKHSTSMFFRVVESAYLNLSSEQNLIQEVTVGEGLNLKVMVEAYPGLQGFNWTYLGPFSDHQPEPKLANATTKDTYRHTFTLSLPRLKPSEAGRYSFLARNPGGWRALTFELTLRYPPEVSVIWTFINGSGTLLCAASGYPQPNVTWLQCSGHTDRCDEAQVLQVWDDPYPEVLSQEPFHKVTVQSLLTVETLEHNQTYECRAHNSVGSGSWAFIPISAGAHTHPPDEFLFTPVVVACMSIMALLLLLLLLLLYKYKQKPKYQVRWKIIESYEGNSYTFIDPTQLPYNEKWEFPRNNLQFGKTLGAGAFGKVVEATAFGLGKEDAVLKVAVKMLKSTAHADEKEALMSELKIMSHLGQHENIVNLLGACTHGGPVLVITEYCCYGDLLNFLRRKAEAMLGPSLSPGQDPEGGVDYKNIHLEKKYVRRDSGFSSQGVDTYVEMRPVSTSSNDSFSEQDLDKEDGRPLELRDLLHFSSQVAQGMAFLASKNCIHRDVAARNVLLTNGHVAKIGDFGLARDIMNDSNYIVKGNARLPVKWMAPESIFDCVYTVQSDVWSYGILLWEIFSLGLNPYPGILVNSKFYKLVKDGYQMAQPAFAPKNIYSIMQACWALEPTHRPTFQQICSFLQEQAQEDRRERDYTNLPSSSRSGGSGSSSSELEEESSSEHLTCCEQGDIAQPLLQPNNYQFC

| Structure (SMILES) | IC50 [1] [µM] | IC50 [2] [µM] | IC50 [3] [µM] | IC50 [4] [µM] | IC50 [5] [µM] | IC50 [6] [µM] |
| --- | --- | --- | --- | --- | --- | --- |
| O=C(c1ccccc1)c1c[nH]c2ncc(Br)c([N+](=O)[O-])c12 [Compound P-0736] |  |  |  | ≤ 10 | ≤ 10 |  |
| Cc1cc(C(=O)c2c[nH]c3ncc(-c4cccc(NS(C)(=O)=O)c4)cc23)n(C)n1 [Compound P-0825] |  |  |  | ≤ 10 | ≤ 10 |  |
| O=C(c1cc(F)ccc1F)c1c[nH]c2ncc(-c3ccsc3)cc12 [Compound P-0699] | ≤ 10 |  |  | ≤ 10 | ≤ 10 |  |
| Cc1ccccc1S(=O)(=O)NCc1c[nH]c2ncccc12 [Compound P-0768] |  |  | ≤ 10 |  |  |  |
| O=C(c1ccccc1F)c1c[nH]c2nccc(-c3ccc(Cl)cc3)c12 [Compound P-0472] |  | ≤ 10 |  |  | ≤ 10 |  |
| Fc1ccc(-c2c[nH]c3ncccc23)c(F)c1 [Compound P-0470] |  |  | ≤ 10 |  |  |  |
| COc1cccc(C(=O)c2c[nH]c3ncc(Br)cc23)c1 [Compound P-0341] | ≤ 10 |  |  | ≤ 10 | ≤ 10 |  |
| CS(=O)(=O)Nc1cccc(-c2ccnc3[nH]cc(C(=O)c4cccc(Cl)c4Cl)c23)c1 [Compound P-0231] |  | ≤ 10 |  |  | ≤ 10 |  |
| Cc1cc(C(=O)c2c[nH]c3ncc(-c4cccnc4)cc23)no1 [Compound P-0826] | ≤ 10 |  |  |  | ≤ 10 |  |
| O=C(c1cc(Cl)ccc1F)c1c[nH]c2ncc(-c3cccs3)cc12 [Compound P-0644] |  |  |  | ≤ 10 | ≤ 10 |  |
| Cc1ccc(F)cc1C(=O)c1c[nH]c2nccc(-c3ccc(C(N)=O)cc3)c12 [Compound P-1024] |  | ≤ 10 |  |  | ≤ 10 |  |
| COc1cccc(C(=O)c2c[nH]c3nccc(-c4cccc(NC(C)=O)c4)c23)c1 [Compound P-0363] | ≤ 10 |  |  |  | ≤ 10 |  |
| Cc1cc(C(=O)c2c[nH]c3nccc(-c4ccsc4)c23)no1 [Compound P-1026] |  | ≤ 10 |  |  | ≤ 10 |  |
| c1ccc(C(CNCc2c[nH]c3ncccc23)c2ccccc2)cc1 [Compound P-0514] |  |  | ≤ 10 |  |  |  |
| NC(=O)c1ccc(-c2cnc3[nH]cc(C(=O)c4cccc(Cl)c4Cl)c3c2)cc1 [Compound P-0977] | ≤ 10 |  |  |  | ≤ 10 |  |
| COc1ccc(-c2ccnc3[nH]cc(C(=O)c4cccc(O)c4)c23)cn1 [Compound P-0520] | ≤ 10 |  |  |  | ≤ 10 |  |
| O=C(c1cc(F)ccc1F)c1c[nH]c2nccc(-c3ccc(Cl)cc3)c12 [Compound P-0638] |  | ≤ 10 |  |  | ≤ 10 |  |
| COc1cccc(Cc2c[nH]c3ncc(-c4ccsc4)cc23)c1 [Compound P-0392] | ≤ 10 |  |  | ≤ 10 | ≤ 10 |  |
| O=C(c1cccc(Cl)c1Cl)c1c[nH]c2nccc(Cl)c12 [Compound P-0232] | ≤ 10 |  |  |  | ≤ 10 |  |
| c1cc(Cc2c[nH]c3ncc(-c4ccsc4)cc23)cc(OCCOC2CCCCO2)c1 (stereo not shown) [Compound P-0835] | ≤ 10 |  |  | ≤ 10 | ≤ 10 | ≤ 10 |
| O=C(c1c(F)cccc1F)c1c[nH]c2nccc(-c3cc(F)cc(F)c3)c12 [Compound P-0344] | ≤ 10 | ≤ 10 |  |  | ≤ 10 |  |
| COc1cccc(Cc2c[nH]c3nccc(-c4ccsc4)c23)n1 [Compound P-0810] |  | ≤ 10 |  | ≤ 10 | ≤ 10 |  |
| O=C(c1ccccc1)c1c[nH]c2ncc(Br)cc12 [Compound P-0561] | ≤ 10 |  |  | ≤ 10 | ≤ 10 |  |
| O=C(c1ccccc1)c1c[nH]c2nccc([N+](=O)[O-])c12 [Compound P-0246] | ≤ 10 | ≤ 10 |  |  | ≤ 10 |  |
| Cc1cc(C(=O)c2c[nH]c3nccc(-c4cccc(NS(C)(=O)=O)c4)c23)no1 [Compound P-1025] |  | ≤ 10 |  |  | ≤ 10 |  |
| Cc1ccc(F)cc1C(=O)c1c[nH]c2nccc(-c3cccc(C(N)=O)c3)c12 [Compound P-0976] | ≤ 10 | ≤ 10 |  |  | ≤ 10 |  |
| COc1ccc(C(=O)c2c[nH]c3ncc(-c4cccs4)cc23)c(Cl)c1 [Compound P-0248] | ≤ 10 | ≤ 10 |  | ≤ 10 | ≤ 10 |  |
| O=S(=O)(NCc1c[nH]c2ncccc12)c1cc(Cl)sc1Cl [Compound P-0603] |  | ≤ 10 | ≤ 10 |  |  |  |
| CN(C)c1ccc(Cc2c[nH]c3ncccc23)cc1 [Compound P-0150] | ≤ 10 |  | ≤ 10 |  |  |  |
| Clc1ccc(Cc2c[nH]c3ncc(-c4ccsc4)cc23)cn1 [Compound P-0385] | ≤ 10 |  |  | ≤ 10 | ≤ 10 |  |

Results, then the molecule that gave them:

| IC50 [1] [µM] | IC50 [2] [µM] | IC50 [3] [µM] | IC50 [4] [µM] | IC50 [5] [µM] | IC50 [6] [µM] | Structure (SMILES) |
| --- | --- | --- | --- | --- | --- | --- |
| ≤ 10 | ≤ 10 | ≤ 10 |  |  |  | CS(=O)(=O)c1cccc(-c2cnc3[nH]cc(Cc4c(F)ccc(N)c4F)c3c2)c1 [Compound P-1614] |
| ≤ 10 |  | ≤ 10 |  |  |  | O=C(c1c[nH]c2ccccc12)c1c[nH]c2ncc(Br)cc12 [Compound P-1624] |
| ≤ 10 |  |  |  | ≤ 10 |  | O=C(c1cc(F)ccc1F)c1c[nH]c2ncc(-c3cccnc3)cc12 [Compound P-1111] |
|  |  | ≤ 10 |  |  |  | CCCn1cccc1C(c1c[nH]c2ncc(-c3cccnc3)cc12)n1ccc2cc(-c3cccnc3)cnc21 (stereo not shown) [Compound P-1686] |
|  | ≤ 10 |  |  | ≤ 10 |  | Cc1cc(C(=O)c2c[nH]c3nccc(-c4cccnc4)c23)no1 [Compound P-1029] |
|  |  | ≤ 10 |  |  |  | COC(=O)Nc1cccc(C(=O)c2c[nH]c3ncc(Cl)cc23)c1 [Compound P-1619] |
|  | ≤ 10 | ≤ 10 |  |  |  | O=C(NCC(F)(F)F)Nc1ccc(F)c(Cc2c[nH]c3ncc(Cl)cc23)c1F [Compound P-1601, 1-[3-(5-Chloro-1H-pyrrolo[2,3-b]pyridin-3-ylmethyl)-2,4-difluoro-phenyl]-3-(2,2,2-trifluoro-ethyl)-urea] |
|  |  | ≤ 10 |  |  |  | CCOc1ccccc1C(O)c1c[nH]c2ncc(-c3cccnc3)cc12 (stereo not shown) [Compound P-1533] |
|  |  | ≤ 10 | ≤ 10 |  |  | CC(=O)Nc1cccc(-c2cnc3[nH]cc(C(=O)c4cccc(OC(F)(F)F)c4)c3c2)c1 [Compound P-1422, N-{3-[3-(3-Trifluoromethoxy-benzoyl)-1H -pyrrolo[2,3-b]pyridin-5-yl]-phenyl}-acetamide] |
|  |  | ≤ 10 | ≤ 10 |  |  | O=C(c1ccc(Cl)cc1Cl)c1c[nH]c2ncc(-c3ccccc3)cc12 [Compound P-1557] |
| ≤ 10 |  | ≤ 10 |  |  |  | NC(=O)c1cccc(-c2cnc3[nH]ccc3c2)c1 [Compound P-1622, 3-(1H-Pyrrolo[2,3-b]pyridin-5-yl)-benzamide] |
|  | ≤ 10 |  |  | ≤ 10 |  | COc1cccc(C(=O)c2c[nH]c3nccc(-c4cccnc4)c23)c1 [Compound P-1117] |
| ≤ 10 |  |  |  | ≤ 10 |  | COc1cccc(C(=O)c2c[nH]c3nccc(-c4cccc(S(C)(=O)=O)c4)c23)c1 [Compound P-1125] |
|  |  |  | ≤ 10 | ≤ 10 |  | O=C(c1ccc(Cl)cc1)c1c[nH]c2ncc(Br)cc12 [Compound P-1033] |
| ≤ 10 |  |  |  | ≤ 10 |  | COc1cccc(C(=O)c2c[nH]c3nccc(-c4ccsc4)c23)c1 [Compound P-1188] |
|  | ≤ 10 |  |  | ≤ 10 |  | Cc1cc(C(=O)c2c[nH]c3nccc(-c4cccc(S(C)(=O)=O)c4)c23)no1 [Compound P-1031] |
| ≤ 10 |  |  |  | ≤ 10 |  | COc1cccc(C(=O)c2c[nH]c3nccc(-c4cccc(/C=C/C(=O)O)c4)c23)c1 [Compound P-1066] |
|  | ≤ 10 |  |  | ≤ 10 |  | COc1ccc(-c2ccnc3[nH]cc(C(=O)c4cc(C)on4)c23)cn1 [Compound P-1113] |
| ≤ 10 |  | ≤ 10 |  |  |  | CS(=O)(=O)Nc1ccc(F)c(Cc2c[nH]c3ncccc23)c1F [Compound P-1603, N-[2,4-Difluoro-3-(1H-pyrrolo[2,3-b]pyridin-3-ylmethyl)-phenyl]-methanesulfonamide] |
